The inhibition is the percentage by which the read-out fell short of the control. Low values mean a response near the control, high ones a response far below the control. By IC50 is commonly meant the concentration needed to halve the response being measured. High values mean a need for much substance, low ones inhibition by little substance.

These results are taken from the Kinase Knowledgebase extract (Sharma et al. 2016).

Test [1] has as its target EGFR (human) (UniProt P00533). As to conditions: a431, concentration not given here.
The target in test [2] is EGFR (human) (UniProt P00533). As to conditions: a431.
Chain of EGFR (human) (P00533 whole entry, looked up): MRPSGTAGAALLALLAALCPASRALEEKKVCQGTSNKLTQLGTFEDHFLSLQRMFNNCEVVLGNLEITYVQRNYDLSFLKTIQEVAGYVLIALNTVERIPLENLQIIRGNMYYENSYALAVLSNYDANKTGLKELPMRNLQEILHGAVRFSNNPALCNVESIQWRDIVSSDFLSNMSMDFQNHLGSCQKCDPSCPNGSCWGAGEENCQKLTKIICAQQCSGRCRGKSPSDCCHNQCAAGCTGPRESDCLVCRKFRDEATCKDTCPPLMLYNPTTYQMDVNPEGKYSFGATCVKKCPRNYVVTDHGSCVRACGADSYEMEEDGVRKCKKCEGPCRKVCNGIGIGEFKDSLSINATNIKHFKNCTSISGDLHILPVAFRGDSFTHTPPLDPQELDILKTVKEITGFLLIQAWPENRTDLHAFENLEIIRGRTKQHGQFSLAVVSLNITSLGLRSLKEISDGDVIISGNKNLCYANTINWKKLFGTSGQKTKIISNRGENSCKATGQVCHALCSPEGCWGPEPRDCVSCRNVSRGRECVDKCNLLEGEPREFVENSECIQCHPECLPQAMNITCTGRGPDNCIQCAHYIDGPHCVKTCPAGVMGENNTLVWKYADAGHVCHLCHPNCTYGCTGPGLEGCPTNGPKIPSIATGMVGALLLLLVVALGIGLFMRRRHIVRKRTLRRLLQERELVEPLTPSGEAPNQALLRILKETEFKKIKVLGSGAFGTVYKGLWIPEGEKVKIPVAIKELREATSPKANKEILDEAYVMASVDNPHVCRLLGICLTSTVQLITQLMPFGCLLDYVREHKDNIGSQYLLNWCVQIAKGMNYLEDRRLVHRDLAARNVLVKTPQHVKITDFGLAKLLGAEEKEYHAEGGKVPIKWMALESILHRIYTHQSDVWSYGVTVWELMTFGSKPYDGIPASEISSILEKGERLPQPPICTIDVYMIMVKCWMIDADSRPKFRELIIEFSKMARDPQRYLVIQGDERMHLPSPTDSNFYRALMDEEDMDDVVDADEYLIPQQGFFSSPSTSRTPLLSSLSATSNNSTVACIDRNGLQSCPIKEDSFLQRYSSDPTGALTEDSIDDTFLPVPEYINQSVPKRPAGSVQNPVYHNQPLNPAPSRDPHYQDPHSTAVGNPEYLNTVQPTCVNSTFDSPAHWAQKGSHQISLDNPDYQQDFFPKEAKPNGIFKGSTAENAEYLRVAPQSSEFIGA
A further test deals with EGFR (murine) (UniProt P00533). The conditions noted are these: balb/mk cells.
Chain of EGFR (murine) (P00533 whole entry, looked up): as above
Another test addresses EGFR (UniProt P00533).

SMILES strings stand for the structures.

Chain of EGFR (P00533 whole entry, looked up): as above

For the compound `C=C(CN1CCOCC1)C(=O)c1ccc(OCc2ccccc2)cc1`, the inhibition on EGFR (human) [1] came to 100%. As for `C=C(CN(C)C)C(=O)c1ccc(OCc2ccccc2)c(O)c1`, the concentration for half-maximal inhibition (IC50) against EGFR (human) [2] is above 100 µM.

Consider `O=C(CCN1CCOCC1)c1ccc(OCc2ccccc2)cc1`, for which, on EGFR (human) [2], the half-inhibitory concentration (IC50) is above 100 µM.

`C=C(CN(C)C)C(=O)c1ccccc1` returned an IC50 against EGFR (human) [2] above 100 µM.

With `CCOC(=O)C1CCN(CCC(=O)c2ccc(OCc3ccccc3)cc2)CC1`, the 50% inhibitory concentration (IC50) against EGFR (human) [2] is above 100 µM. For `C=C(CN1CCCCC1)C(=O)c1ccc(OCc2ccccc2)cc1`, the IC50 against EGFR (human) [2] is above 100 µM. In turn, `C=C(CN(C)C)C(=O)c1ccc(OS(=O)(=O)c2ccc(C(=O)O)cc2)cc1` returned a half-maximal inhibitory concentration (IC50) with EGFR (murine) above 50 µM.

Take `C=C(CN1CCN(C)CC1)C(=O)c1ccc(OCc2ccccc2)cc1`: the half-maximal inhibitory concentration (IC50) is 1.5 µM against EGFR, above 100 µM against EGFR (human) [2] and 0.95 µM in the test with EGFR (murine).

For the compound `N#CC(C#N)=Cc1cc(O)c(O)c(O)c1`, the values for the IC50 against EGFR and with EGFR (murine) were 70 µM and 31.1 µM, respectively. In the test with EGFR (murine), `CN(C)CCCC(=O)c1ccc(OCc2ccccc2)cc1` displayed a half-inhibitory concentration (IC50) above 50 µM.

With `CN(C)CCC(=O)c1ccc(OCc2ccccc2)cc1`, the IC50 at EGFR (human) [2] is above 100 µM. On to `CC(CN(C)C)C(=O)c1ccc(OS(=O)(=O)c2ccc(C(=O)O)cc2)cc1` (stereo not given), for which the IC50 in the test with EGFR (murine) is above 50 µM.
